pEC50, pIC50: −log10 of the molar value. Like-named read-outs stand apart in the source and are kept apart here.
Tests used:
IRAK4 enzyme = target: T1, IRAK4 enzyme (Homo sapiens, UniProt Q9NWZ3); assay: IRAK4 Biochemical Assay (TR-FRET, STK1 KinEASE); conditions: 500 μM ATP, Table 2 second part (compounds 33-343), read-out: IC50 IRAK4-HTBS
T1 construct: purchased Carna Biosciences, Chuo-ku, Kobe, Japan
T1 sequence (Q9NWZ3 1-460): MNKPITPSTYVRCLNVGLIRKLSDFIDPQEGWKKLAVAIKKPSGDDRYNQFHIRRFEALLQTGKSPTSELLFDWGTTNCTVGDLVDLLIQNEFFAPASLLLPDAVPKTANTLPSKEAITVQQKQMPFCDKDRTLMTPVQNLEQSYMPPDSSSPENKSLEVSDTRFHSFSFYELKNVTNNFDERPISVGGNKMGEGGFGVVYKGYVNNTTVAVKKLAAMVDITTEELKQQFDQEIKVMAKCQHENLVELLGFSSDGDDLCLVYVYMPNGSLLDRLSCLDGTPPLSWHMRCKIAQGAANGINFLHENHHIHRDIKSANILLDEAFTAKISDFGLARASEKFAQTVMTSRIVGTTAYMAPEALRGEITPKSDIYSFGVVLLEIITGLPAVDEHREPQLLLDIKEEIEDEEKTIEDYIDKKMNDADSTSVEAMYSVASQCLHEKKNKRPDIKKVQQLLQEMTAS
In short: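 Human IRAK4 (0.75 nM) preincubated 15 min with compound and 2 μM STK1 peptide, then reacted 120 min at room temperature with 500 μM ATP in HEPES pH 7.0 buffer with MgCl2 and DTT. EDTA stop with Cryptate anti-phosphopeptide antibody and tracer, 60 min; TR-FRET read as 665/615 nm ratio.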

TNFα = assay: IRAK4 Monocyte TNFα Cell Based Assay (LPS-stimulated, TR-FRET TNFα detection); parameters: species or system human; conditions: Homo sapiens, Monocyte, read-out: EC50 MONO TNF HTRF
In short: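 Monocytes (5,000 cells/well) treated with compound (0.1% DMSO) for 1 hour at 37° C, then stimulated with 50 pg/ml LPS for 4 hours. TNFα in medium quantified by TR-FRET two-antibody detection after overnight room-temperature incubation. Percent of control calculated against unstimulated (0%) and LPS-stimulated (100%) cells.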

[1] = human monocytes, LPS-stimulated, Table 2 second part (compounds 33-343)

Structure (SMILES) | pIC50 (IRAK4 enzyme) | pEC50 (TNFα) | pEC50 (TNFα; [1])
CNc1cc(-c2ccc3cc(C#N)cnn23)ncc1-c1nnc(N2C[C@H]3C[C@@H](C2)[C@@H]3NC(C)=O)s1 [Example 176, N-((1R,5S,6s)-3-(5-(6-(3-cyanopyrrolo[1,2-b]pyridazin-7-yl)-4-(methylamino)pyridin-3-yl)-1,3,4-thiadiazol-2-yl)-3-azabicyclo[3.1.1]heptan-6-yl)acetamide] | 9.12 | 7.63 | 
CC(C)Nc1cc(-c2ccc3cc(C#N)cnn23)ncc1-c1nnc(C(=O)N[C@H]2CC[C@H](O)CC2)s1 [Example 220, 5-(6-(3-cyanopyrrolo[1,2-b]pyridazin-7-yl)-4-(isopropylamino)pyridin-3-yl)-N-((1r,4r)-4-hydroxycyclohexyl)-1,3,4-thiadiazole-2-carboxamide] | 8.86 |  | 6.88
CC(C)Nc1cc(-c2ccc3cc(C#N)cnn23)ncc1-c1nnc(C(=O)N[C@H]2C[C@H](O)C2)s1 [Example 213, 5-(6-(3-cyanopyrrolo[1,2-b]pyridazin-7-yl)-4-(isopropylamino)pyridin-3-yl)-N-((1r,3r)-3-hydroxycyclobutyl)-1,3,4-thiadiazole-2-carboxamide] | 9.51 |  | 5.74
N#Cc1cnn2c(-c3cc(NC4COC4)c(-c4nnc([C@H]5CC[C@@H](NC(=O)C6CC6)CC5)s4)cn3)ccc2c1 [Example 203, N-((1s,4s)-4-(5-(6-(3-cyanopyrrolo[1,2-b]pyridazin-7-yl)-4-(oxetan-3-ylamino)pyridin-3-yl)-1,3,4-thiadiazol-2-yl)cyclohexyl)cyclopropanecarboxamide] | 9.08 |  | 7.86
CC(C)Nc1cc(-c2ccc3cc(C#N)cnn23)ncc1-c1nnc(N2C[C@H]3CC[C@@H](C2)[C@@H]3Nc2ncccc2F)s1 [Compound 309, 7-(5-(5-((1R,5S,8s)-8-((3-fluoropyridin-2-yl)amino)-3-azabicyclo[3.2.1]octan-3-yl)-1,3,4-thiadiazol-2-yl)-4-(isopropylamino)pyridin-2-yl)pyrrolo[1,2-b]pyridazine-3-carbonitrile] | 7.53 |  | 6.16
N#Cc1cnn2c(-c3cc(NC4COC4)c(-c4nnc([C@H]5CC[C@H](NC(=O)C6CC6)CC5)s4)cn3)ccc2c1 [Example 135, N-((1r,4r)-4-(5-(6-(3-cyanopyrrolo[1,2-b]pyridazin-7-yl)-4-(oxetan-3-ylamino)pyridin-3-yl)-1,3,4-thiadiazol-2-yl)cyclohexyl)cyclopropanecarboxamide] | 9.28 |  | 7.98
CC(C)Nc1cc(-c2ccc3cc(C#N)cnn23)ncc1-c1nnc(N2C[C@H]3CC[C@@H](C2)[C@@H]3NC(=O)C(=O)N=S(C)(C)=O)s1 [Example 103, N1-((1R,5S,8s)-3-(5-(6-(3-cyanopyrrolo[1,2-b]pyridazin-7-yl)-4-(isopropylamino)pyridin-3-yl)-1,3,4-thiadiazol-2-yl)-3-azabicyclo[3.2.1]octan-8-yl)-N2-(dimethyl(oxo)-16-sulfanylidene)oxalamide] | 9.29 |  | 8.85
CC(C)Nc1cc(-c2ccc3cc(C#N)cnn23)ncc1-c1nnc([C@H]2C[C@@](C)(O)C2)s1 [Example 199, 7-(5-(5-((1s,3s)-3-hydroxy-3-methylcyclobutyl)-1,3,4-thiadiazol-2-yl)-4-(isopropylamino)pyridin-2-yl)pyrrolo[1,2-b]pyridazine-3-carbonitrile] | 9.16 |  | 7.42
CC(C)Nc1cc(-c2ccc3cc(C#N)cnn23)ncc1-c1nnc(C(=O)N[C@H]2C[C@](C)(O)C2)s1 [Example 219, 5-(6-(3-cyanopyrrolo[1,2-b]pyridazin-7-yl)-4-(isopropylamino)pyridin-3-yl)-N-((1r,3r)-3-hydroxy-3-methylcyclobutyl)-1,3,4-thiadiazole-2-carboxamide] | 9.17 |  | 5.68
CC(=O)N[C@H]1C[C@H]2CC[C@@H](C1)N2c1nnc(-c2cnc(-c3ccc4cc(C#N)cnn34)cc2NC(C)C)s1 [Example 55, N-((1R,3r,5S)-8-(5-(6-(3-cyanopyrrolo[1,2-b]pyridazin-7-yl)-4-(isopropylamino)pyridin-3-yl)-1,3,4-thiadiazol-2-yl)-8-azabicyclo[3.2.1]octan-3-yl)acetamide] | 9.27 | 6.94 | 
CC(C)Nc1cc(-c2ccc3cc(C#N)cnn23)ncc1-c1nnc(N2C[C@H]3CC[C@@H](C2)[C@@H]3NS(C)(=O)=O)s1 [Example 58, N-((1R,5S,8s)-3-(5-(6-(3-cyanopyrrolo[1,2-b]pyridazin-7-yl)-4-(isopropylamino)pyridin-3-yl)-1,3,4-thiadiazol-2-yl)-3-azabicyclo[3.2.1]octan-8-yl)methanesulfonamide] | 8.73 |  | 8.03
CC(C)Nc1cc(-c2ccc3cc(C#N)cnn23)ncc1-c1nnc(N2C[C@H]3CC[C@@H](C2)[C@@]3(C)O)s1 [Example 153, 7-(5-(5-((1R,5S,8r)-8-hydroxy-8-methyl-3-azabicyclo[3.2.1]octan-3-yl)-1,3,4-thiadiazol-2-yl)-4-(isopropylamino)pyridin-2-yl)pyrrolo[1,2-b]pyridazine-3-carbonitrile] | 9.04 |  | 8.14
N#Cc1cnn2c(-c3cc(NC4COC4)c(-c4nnc([C@H]5CC[C@H](NC(=O)N6CCOCC6)CC5)s4)cn3)ccc2c1 [Example 142, N-((1r,4r)-4-(5-(6-(3-cyanopyrrolo[1,2-b]pyridazin-7-yl)-4-(oxetan-3-ylamino)pyridin-3-yl)-1,3,4-thiadiazol-2-yl)cyclohexyl)morpholine-4-carboxamide] | 9.42 |  | 8.04
CC(=O)N[C@@H]1[C@@H]2CC[C@H]1CN(c1nnc(-c3cnc(-c4ccc5cc(C#N)cnn45)cc3NC(C)C)s1)C2 [Example 38, N-((1R,5S,8s)-3-(5-(6-(3-cyanopyrrolo[1,2-b]pyridazin-7-yl)-4-(isopropylamino)pyridin-3-yl)-1,3,4-thiadiazol-2-yl)-3-azabicyclo[3.2.1]octan-8-yl)acetamide] | 9.10 |  | 8.46
CC(C)Nc1cc(-c2ccc3cc(C#N)cnn23)ncc1-c1nnc([C@H]2CC[C@H](NC(=O)N3CCOCC3)CC2)s1 [Example 139, N-((1r,4r)-4-(5-(6-(3-cyanopyrrolo[1,2-b]pyridazin-7-yl)-4-(isopropylamino)pyridin-3-yl)-1,3,4-thiadiazol-2-yl)cyclohexyl)morpholine-4-carboxamide] | 9.19 |  | 8.23
COC(=O)NC[C@H]1C[C@H](Nc2cc(-c3ccc4cc(C#N)cnn34)ncc2-c2nnc([C@H]3CC[C@H](NC(=O)C4CC4)CC3)s2)C1 [Example 134, methyl (((1R,3r)-3-((2-(3-cyanopyrrolo[1,2-b]pyridazin-7-yl)-5-(5-((1r,4R)-4-(cyclopropanecarboxamido)cyclohexyl)-1,3,4-thiadiazol-2-yl)pyridin-4-yl)amino)cyclobutyl)methyl)carbamate] | 9.03 |  | 8.16
COC(=O)N1CCN(C(=O)N[C@@H]2[C@@H]3CC[C@H]2CN(c2nnc(-c4cnc(-c5ccc6cc(C#N)cnn56)cc4NC(C)C)s2)C3)CC1 [Example 105, methyl 4-(((1R,5S,8s)-3-(5-(6-(3-cyanopyrrolo[1,2-b]pyridazin-7-yl)-4-(isopropylamino)pyridin-3-yl)-1,3,4-thiadiazol-2-yl)-3-azabicyclo[3.2.1]octan-8-yl)carbamoyl)piperazine-1-carboxylate] | 9.01 |  | 8.38
CC(C)Nc1cc(-c2ccc3cc(C#N)cnn23)ncc1-c1nnc(N2C[C@H]3CC[C@@H](C2)[C@@H]3NC(=O)N2CCN(S(C)(=O)=O)CC2)s1 [Example 106, N-((1R,5S,8s)-3-(5-(6-(3-cyanopyrrolo[1,2-b]pyridazin-7-yl)-4-(isopropylamino)pyridin-3-yl)-1,3,4-thiadiazol-2-yl)-3-azabicyclo[3.2.1]octan-8-yl)-4-(methylsulfonyl)piperazine-1-carboxamide] | 8.96 |  | 8.59
CC(=O)N[C@@H]1[C@@H]2C[C@H]1CN(c1nnc(-c3cnc(-c4ccc5cc(C#N)cnn45)cc3NC3COC3)s1)C2 [Example 179, N-((1R,5S,6s)-3-(5-(6-(3-cyanopyrrolo[1,2-b]pyridazin-7-yl)-4-(oxetan-3-ylamino)pyridin-3-yl)-1,3,4-thiadiazol-2-yl)-3-azabicyclo[3.1.1]heptan-6-yl)acetamide] | 9.43 | 8.19 | 
CC(=O)N[C@@H]1C[C@H]2COC[C@@H](C1)N2c1nnc(-c2cnc(-c3ccc4cc(C#N)cnn34)cc2NC(C)C)s1 [Example 209, N-((1R,5S,7r)-9-(5-(6-(3-cyanopyrrolo[1,2-b]pyridazin-7-yl)-4-(isopropylamino)pyridin-3-yl)-1,3,4-thiadiazol-2-lyl)-3-oxa-9-azabicyclo[3.3.1]nonan-7-yl)acetamide] | 9.05 | 8.02 | 

Source: US12060351B2, “Thiadiazole IRAK4 inhibitors” (Gilead Sciences, Inc., priority 2018, dated 2024)
